Measured values reported in ChEMBL document CHEMBL1201862, “PubChem BioAssay data set” (2004).
Activity calls are given as the source filed them.

Key:
Estrogen receptor = target: T1, Estrogen receptor (Homo sapiens, UniProt P03372);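 further: potency for inhibiting coactivator peptide recruitment to the receptor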
T1 sequence (P03372 whole entry): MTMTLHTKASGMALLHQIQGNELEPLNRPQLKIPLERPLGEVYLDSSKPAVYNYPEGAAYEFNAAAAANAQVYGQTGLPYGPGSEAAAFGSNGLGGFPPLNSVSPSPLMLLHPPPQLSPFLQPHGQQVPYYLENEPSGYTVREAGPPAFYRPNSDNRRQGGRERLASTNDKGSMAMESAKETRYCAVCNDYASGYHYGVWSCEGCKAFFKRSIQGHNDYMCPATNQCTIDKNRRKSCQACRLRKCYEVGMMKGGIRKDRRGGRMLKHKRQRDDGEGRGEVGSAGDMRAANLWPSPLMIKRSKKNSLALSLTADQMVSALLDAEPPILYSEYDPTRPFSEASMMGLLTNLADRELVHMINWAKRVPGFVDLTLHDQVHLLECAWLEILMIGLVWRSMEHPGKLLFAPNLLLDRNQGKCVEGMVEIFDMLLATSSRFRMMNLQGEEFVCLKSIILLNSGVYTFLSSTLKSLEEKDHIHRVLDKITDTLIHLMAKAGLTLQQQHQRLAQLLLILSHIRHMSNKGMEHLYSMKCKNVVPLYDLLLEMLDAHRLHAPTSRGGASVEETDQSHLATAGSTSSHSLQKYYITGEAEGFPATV

Major prion protein = Major prion protein (Homo sapiens, UniProt P04156); type: functional, cell-based
Cytochrome P450 1A2 = target: T2, Cytochrome P450 1A2 (Homo sapiens, UniProt P05177);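 further: PubChem cytochrome P450 panel assay, CYP1A2 panel member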
T2 sequence (P05177 whole entry): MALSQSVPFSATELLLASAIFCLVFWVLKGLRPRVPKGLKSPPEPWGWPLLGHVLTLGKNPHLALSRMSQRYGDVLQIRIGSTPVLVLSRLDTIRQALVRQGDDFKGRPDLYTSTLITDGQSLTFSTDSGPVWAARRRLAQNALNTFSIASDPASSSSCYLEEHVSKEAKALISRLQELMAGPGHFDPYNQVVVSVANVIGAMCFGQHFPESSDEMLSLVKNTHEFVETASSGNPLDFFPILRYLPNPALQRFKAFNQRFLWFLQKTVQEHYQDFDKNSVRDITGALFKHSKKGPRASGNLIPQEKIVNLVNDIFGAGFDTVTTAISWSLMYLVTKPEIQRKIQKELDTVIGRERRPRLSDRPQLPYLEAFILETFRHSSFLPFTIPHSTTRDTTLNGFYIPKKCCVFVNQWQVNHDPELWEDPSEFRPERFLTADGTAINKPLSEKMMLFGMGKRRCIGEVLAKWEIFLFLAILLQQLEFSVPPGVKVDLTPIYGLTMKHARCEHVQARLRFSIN

[1] = Trypanosoma cruzi growth suppression in host cells – NIH3T3 host cells, beta-gal luminescence, confirmation (AID 2044); type: functional, cell-based;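 further: intracellular parasites grown in NIH/3T3 mouse fibroblasts as host cells; luminescent beta-galactosidase reporter signal from transgenic T. cruzi replicating inside host cells; inhibitors lower the luminescence signal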
[2] = NIH3T3 cell viability loss – ATP luminescence, mouse fibroblasts, counter-screen, dose response (AID 2010); type: functional, cell-based;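 further: cells exposed to compound for about 90 hours before reading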
[3] = rise of 2N DNA cells, HeLa – IC50, dose response (AID 1117349); type: functional, cell-based
[4] = rise of 4N DNA cells, HeLa – IC50, dose response (AID 1117351); type: functional, cell-based
[5] = viability of uninfected HEp-2 cells – cell-based, HTS, cytotoxicity control for RSV inhibitor project, dose response (AID 2410); type: functional; settings: human respiratory syncytial virus
[6] = test system: Streptococcus sp. 'group A'; assay: Streptococcus pyogenes SK(-)GAS viability under kanamycin – luminescence, BacTiterGlo, confirmation, counter-screen for streptokinase expression inhibitor project, dose response (AID 1900); type: functional, organism-based
Streptokinase A = target: T3, Streptokinase A (Streptococcus pyogenes serotype M1, UniProt P10520); assay: viability-normalized secreted streptokinase activity reduction – plasminogen activation absorbance, OD405, dose response (AID 1914); type: functional, Streptococcus pyogenes M1 GAS;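 further: secreted streptokinase activity via plasminogen activation per viability signal from cell pellet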
T3 sequence (P10520 whole entry): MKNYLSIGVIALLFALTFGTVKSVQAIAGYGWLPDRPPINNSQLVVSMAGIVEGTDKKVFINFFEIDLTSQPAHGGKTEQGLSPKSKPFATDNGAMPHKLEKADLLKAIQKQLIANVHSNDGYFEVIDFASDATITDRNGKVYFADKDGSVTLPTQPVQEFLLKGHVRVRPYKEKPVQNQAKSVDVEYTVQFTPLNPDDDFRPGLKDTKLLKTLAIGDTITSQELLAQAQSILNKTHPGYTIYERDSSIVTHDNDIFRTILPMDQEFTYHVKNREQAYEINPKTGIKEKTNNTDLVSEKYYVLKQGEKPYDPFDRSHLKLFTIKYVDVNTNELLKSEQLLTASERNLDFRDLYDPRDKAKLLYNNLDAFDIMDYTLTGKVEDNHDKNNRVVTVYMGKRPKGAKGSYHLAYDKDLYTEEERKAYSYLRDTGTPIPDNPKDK

Streptococcus = assay: GAS UMAA2166 growth inhibition – luminescence, BacTiterGlo, counter-screen for streptokinase expression inhibitor project, dose response (AID 1915); type: functional, organism-based;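 further: potency for reduction of bacterial viability or growth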
[7] = target: T4, Histone-lysine N-methyltransferase NSD2 (Homo sapiens, UniProt O96028); type: biochemical
T4 sequence (O96028 whole entry): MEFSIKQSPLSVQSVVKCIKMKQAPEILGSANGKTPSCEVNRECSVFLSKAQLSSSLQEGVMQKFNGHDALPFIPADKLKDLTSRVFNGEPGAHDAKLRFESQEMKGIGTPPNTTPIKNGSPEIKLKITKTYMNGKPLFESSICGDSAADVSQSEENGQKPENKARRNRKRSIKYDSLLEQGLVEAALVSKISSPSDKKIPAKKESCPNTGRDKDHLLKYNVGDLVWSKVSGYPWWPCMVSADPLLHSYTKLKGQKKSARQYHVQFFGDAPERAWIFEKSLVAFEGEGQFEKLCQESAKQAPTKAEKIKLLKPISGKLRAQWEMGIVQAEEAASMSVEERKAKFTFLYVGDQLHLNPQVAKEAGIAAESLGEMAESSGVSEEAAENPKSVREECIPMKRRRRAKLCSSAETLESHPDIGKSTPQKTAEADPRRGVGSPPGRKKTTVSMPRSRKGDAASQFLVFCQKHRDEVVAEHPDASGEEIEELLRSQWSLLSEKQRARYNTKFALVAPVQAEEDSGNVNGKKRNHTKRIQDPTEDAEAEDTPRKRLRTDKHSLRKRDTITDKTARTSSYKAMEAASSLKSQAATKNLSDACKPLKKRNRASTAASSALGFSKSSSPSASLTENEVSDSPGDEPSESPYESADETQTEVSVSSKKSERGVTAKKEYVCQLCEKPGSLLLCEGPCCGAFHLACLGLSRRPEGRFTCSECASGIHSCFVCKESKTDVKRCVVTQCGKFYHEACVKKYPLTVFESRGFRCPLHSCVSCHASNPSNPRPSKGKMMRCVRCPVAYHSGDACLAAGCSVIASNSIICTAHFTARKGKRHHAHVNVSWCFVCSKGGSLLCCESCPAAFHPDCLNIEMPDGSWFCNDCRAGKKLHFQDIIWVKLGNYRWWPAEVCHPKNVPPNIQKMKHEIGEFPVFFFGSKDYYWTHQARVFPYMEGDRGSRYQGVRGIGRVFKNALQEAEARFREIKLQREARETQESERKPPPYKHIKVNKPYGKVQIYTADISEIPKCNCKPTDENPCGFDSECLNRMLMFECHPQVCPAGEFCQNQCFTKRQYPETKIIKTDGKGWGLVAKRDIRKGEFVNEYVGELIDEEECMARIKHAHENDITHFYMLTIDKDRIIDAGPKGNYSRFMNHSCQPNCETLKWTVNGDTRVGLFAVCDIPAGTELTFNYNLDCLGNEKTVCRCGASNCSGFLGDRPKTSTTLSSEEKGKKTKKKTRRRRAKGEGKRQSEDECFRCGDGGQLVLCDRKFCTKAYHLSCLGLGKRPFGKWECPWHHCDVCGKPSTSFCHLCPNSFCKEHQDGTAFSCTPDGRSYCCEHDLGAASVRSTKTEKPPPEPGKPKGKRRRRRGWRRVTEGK

[8] = target: T5, Endoribonuclease toxin MazF (Escherichia coli K-12, UniProt P0AE70); assay: activation of MazEF endoribonuclease cleavage – biochemical, fluorescence, single-stranded RNA substrate, uHTS hits, dose response (AID 588481); type: functional
T5 sequence (P0AE70 whole entry): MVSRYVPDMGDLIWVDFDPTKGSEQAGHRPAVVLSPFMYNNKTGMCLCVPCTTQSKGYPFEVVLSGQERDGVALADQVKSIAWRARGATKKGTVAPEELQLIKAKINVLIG

[9] = target: T5, Endoribonuclease toxin MazF; assay: substrate-only fluorescence increase artefacts – biochemical, single-stranded RNase substrate, counter-screen for MazEF activator project, dose response (AID 588502); type: functional
[10] = viability loss in THP-1 monocytes – THP-1 cells, cytotoxicity control for Vif-APOBEC3G degradation inhibitor project, dose response (AID 1117359); type: functional; settings: THP-1
[11] = HIV-1 Vif–A3G interaction blockers – biochemical, TR-FRET, GST-Vif 1-94, biotin-A3G peptide, dose response retest, primary screen (AID 1117319); type: functional;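 further: TR-FRET signal of purified GST-Vif binding a biotinylated A3G peptide; inhibitors lower the FRET signal by blocking Vif and A3G binding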
[12] = A cytotoxicity screen of small molecule inhibitors of the PhoP region in Salmonella typhi identified in the primary screen. [Related pubchem assays: 1850, 1864, 1985 ]; type: functional
[13] = target: T6, Heat shock factor protein 1 (Mus musculus, UniProt P38532); assay: decrease of HSF1-responsive luciferase luminescence – cell-based, NIH3T3, dose retest, confirmation (AID 2382); type: functional;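 further: NIH3T3 fibroblasts with HSF1-driven luciferase reporter stressed by proteasome inhibitor MG132; luminescence from HSF1-driven luciferase expression after 8 hours of MG132 stress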
T6 sequence (P38532 whole entry): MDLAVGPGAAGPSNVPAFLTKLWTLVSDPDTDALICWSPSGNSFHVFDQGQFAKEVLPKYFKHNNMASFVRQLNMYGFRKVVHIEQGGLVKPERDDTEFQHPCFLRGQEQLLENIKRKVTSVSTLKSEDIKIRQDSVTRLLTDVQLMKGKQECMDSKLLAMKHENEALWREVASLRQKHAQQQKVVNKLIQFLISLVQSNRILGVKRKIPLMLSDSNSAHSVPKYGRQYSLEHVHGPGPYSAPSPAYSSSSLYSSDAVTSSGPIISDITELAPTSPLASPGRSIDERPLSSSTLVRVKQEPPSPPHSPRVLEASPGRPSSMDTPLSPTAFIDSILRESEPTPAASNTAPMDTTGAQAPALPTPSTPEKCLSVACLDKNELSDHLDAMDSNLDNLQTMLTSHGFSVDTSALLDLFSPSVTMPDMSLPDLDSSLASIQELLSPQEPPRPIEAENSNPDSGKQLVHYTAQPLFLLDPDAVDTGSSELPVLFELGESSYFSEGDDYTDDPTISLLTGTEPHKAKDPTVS

[14] = target: Glyceraldehyde-3-phosphate dehydrogenase (Homo sapiens, UniProt P04406)

With `Cc1c(Br)cc(C(=O)NCc2ccco2)c(C)c1C` the IC50 (Estrogen receptor) was > 50 µM (not active).

In the case of `Cc1c(Br)c(=O)oc2cc(OCC(=O)N3C[C@H]4C[C@@H](C3)c3cccc(=O)n3C4)ccc12`, the IC50 (Major prion protein) is reported as 8.34 µM (active) and the IC50 (cells) is reported as > 138 µM (inactive).

For `CCCc1nc(SCC(=O)NNC(=O)C2CCCCC2)c2ccccc2n1`, the IC50 (Major prion protein) was 0.896 µM (active), the AC50 (Cytochrome P450 1A2) was 15.8 µM (inconclusive) and the IC50 (cells) was > 138 µM (inactive).

With `NC(=O)C1(N2CCCCC2)CCN(c2nc(-c3ccc(Br)cc3)cs2)CC1` the IC50 (Estrogen receptor) was 37.8 µM (not active), the EC50 [1] was 1.78 µM (active) and the EC50 [2] was > 60 µM (inconclusive).

With `C=CC(=O)Nc1cc2c(Nc3ccc(F)c(Cl)c3)ncnc2cc1OCCCN1CCOCC1` [CANERTINIB] the IC50 [3] was 8.87 µM (inactive) and the IC50 [4] was > 10 µM (inactive).

For `Cc1cc(O)c2ccccc2c1O` [VITAMIN K3H2], the IC50 [3] was > 10 µM (inactive) and the IC50 [4] was > 10 µM (inactive).

In the case of `CC(=O)Nc1ccc2nc(C)cc(O)c2c1`, the IC50 (Estrogen receptor) is reported as 21 µM (active).

In the case of `COc1ccc(-c2csc(Nc3ccc(S(=O)(=O)Nc4cc(C)on4)cc3)n2)cc1C`, the CC50 [5] is reported as 8.8 µM (active), the EC50 [6] is reported as 5.7 µM (active) and the EC50 (Streptokinase A) is reported as > 150 µM (not active). The EC50 (Streptococcus) was 10.7 µM (active) and the AC50 [7] was 11.9 µM (active).

With `Cc1oc(C)c2c(=O)ccc3c(c12)OC(N)=C(C#N)C3c1ccccc1` (centres undefined) the EC50 [8] was > 99 µM (inactive), the EC50 [9] was > 99 µM (inactive) and the CC50 [10] was > 40 µM (active). The IC50 [11] was > 52.5 µM (active).

In the case of `Cc1cc(C)c([C@@H]2C[C@H]3CN(C4CCCC4)C(=O)[C@]34CCCN24)c(-n2cccn2)c1`, the EC50 [12] is reported as > 50 µM (active).

With `CCC(C)(C)NC(=O)COc1ccc(C(=O)c2ccccc2)cc1` the EC50 [12] was > 50 µM (active).

With `COC(=O)COc1ccc2c(c1C)O/C(=C\c1ccco1)C2=O` the EC50 [13] was > 195 µM (not active) and the IC50 [11] was > 100 µM (active).

With `O=C(Cc1cn2ccsc2n1)OCc1nc2ccccc2s1` the IC50 (Estrogen receptor) was 6.98 µM (active).

For `O=C(Cn1ccc([N+](=O)[O-])n1)N1CCCc2ccccc21`, the IC50 [11] was > 100 µM (active).

For `CC1(C)OC(=O)C(=Cc2ccc(I)o2)C(=O)O1`, the IC50 [14] was > 100 µM (not active).

For `CS(=O)(=O)c1cnc2c(-c3ccsc3)cnn2c1N`, the EC50 [12] was > 50 µM (active).

In the case of `CC(=O)NC(CSc1cc(C)nc2ccc(Br)cc12)C(=O)O` (centres undefined), the IC50 (Major prion protein) is reported as 4.48 µM (active) and the IC50 (cells) is reported as > 138 µM (inactive).

With `NCCc1c(C(=O)O)[nH]c2ccc(S(N)(=O)=O)cc12` the IC50 [14] was > 100 µM (not active).
